# Patent US20090253720A1, “ANTIFOLATE COMPOSITIONS” (Chelsea Therapeutics, Inc., priority 2008, published 2009)
# Several values for one entry are separate records, joined by “and”; a condition that tells them apart may be missing. Equal values may be shown once.
# How the values were obtained:
# [1] = molecular target: T1, reduced folate carrier (RFC) (Homo sapiens, UniProt P41440); test: [3H]MTX transport inhibition in intact CCRF-CEM human T-cell leukemia cells; format: cell-based; conditions: 2 μM [3H]MTX, 37°, 5 min uptake
# T1 construct: endogenous in cells; host or cells: CCRF-CEM human T-cell leukemia cells
# T1 sequence (P41440 1-591): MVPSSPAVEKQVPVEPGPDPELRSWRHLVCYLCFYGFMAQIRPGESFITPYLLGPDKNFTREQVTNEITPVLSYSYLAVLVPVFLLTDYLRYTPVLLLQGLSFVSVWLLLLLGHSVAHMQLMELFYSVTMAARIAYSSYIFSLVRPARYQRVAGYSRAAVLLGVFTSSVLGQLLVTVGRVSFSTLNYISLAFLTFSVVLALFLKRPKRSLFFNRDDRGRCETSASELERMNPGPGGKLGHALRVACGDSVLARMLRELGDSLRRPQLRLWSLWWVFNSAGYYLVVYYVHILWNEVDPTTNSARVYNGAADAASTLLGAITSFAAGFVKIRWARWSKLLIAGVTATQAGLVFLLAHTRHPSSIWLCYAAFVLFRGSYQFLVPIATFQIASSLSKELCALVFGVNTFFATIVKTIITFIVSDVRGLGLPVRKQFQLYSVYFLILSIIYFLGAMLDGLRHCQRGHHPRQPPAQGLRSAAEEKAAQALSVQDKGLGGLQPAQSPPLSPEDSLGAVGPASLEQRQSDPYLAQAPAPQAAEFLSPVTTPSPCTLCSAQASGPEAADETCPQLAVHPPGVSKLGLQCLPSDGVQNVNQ
# Description: Transport of 2 μM [^3H]MTX (methotrexate) at 37° by intact CCRF-CEM human T-cell leukemia was assayed by a micro-method utilizing repeated iced saline washes to remove extracellular drug. Such method is disclosed in McGuire J J, et al., Cancer Res 1989; 49:4517-25 and McGuire J J, et al., Cancer Res 2006; 66:3836-44, both of which are incorporated herein by reference in their entirety. The washed cell pellets were solubilized in 1 ml of 0.3% Triton X-100 at 37° C. for 1 hour before transfer to scintillation vials; 10 ml Ecoscint liquid scintillation fluid (National Diagnostics, Atlanta, Ga.) was added and radioactivity was quantitated in a Beckman LS6500 scintillation counter. […] Uptake was initiated by addition of 200 μL of cells at ≈2.5×10^7 cells/ml and 2 aliquots (100 μL) were removed to iced saline and processed at 5 min. Adventitious [^3H]MTX binding was determined at 0° C. by adding 200 μl of cells to 25 μl of PBS in a tube and cooling to 0° C. in ice for ≧5 min; following addition of 25 μl of [^3H]MTX to achieve a final concentration of 2 μM, 2 aliquots (100 μL) were immediately removed to iced saline and processed.
# Analytical HPLC was performed on a Rainin Instruments HPLC system using the Dynamax controller and data capture module run on a Macintosh computer, such as described in McGuire J J, et al., J Biol Chem 1990; 265:14073-9, which is incorporated herein by reference in its entirety. C18 reversed-phase (0.4×25 cm; Rainin Microsorb, 5μ) HPLC was performed at 25° C. Detection was by absorbance at 280 and/or 254 nm. For MTX (tr, ≈31.6 min) and 7-OH-MTX (tr, ≈35.2 min) the gradient was from 4-13% ACN in 0.1 M Na-acetate, pH 5.5 over 41 min at 1 ml/min.
# [2] = Comparative dissolution in 0.1N hydrochloric acid, USP dissolution apparatus with HPLC (FIG. 2, FIG. 3); format: physicochemical
# Description: The percent dissolution for both compounds in 0.1N hydrochloric acid as a function of time was evaluated using a standard USP dissolution apparatus and high performance liquid chromatography (HPLC) test equipment. […] This is particularly relevant in the case of pharmaceutical compositions of the invention for oral delivery, wherein the composition will encounter an acidic environment, such as in the stomach. Greater solubility of the sodium salt compound indicates a greater amount of the active compound will be available for absorption.
# Such improved solubility is illustrated in FIG. 3, wherein the comparative dissolution of an antifolate compound is given as the percent dissolution as a function of time. The antifolate compound was tested in the diacid form (denoted as “CH-1504 free acid”), in the sodium salt form (denoted as “CH-1504 sodium salt”), and as the sodium salt form in a pharmaceutical composition according to the invention including […]® 44/14 (denoted as “CH-1504 formulation”). Dissolution was tested using 0.1N hydrochloric acid. […] The inventive formulation achieved 90% dissolution by 30 minutes and 100% dissolution by 45 minutes. After 90 minutes, the salt alone and the diacid alone achieved only about 75% dissolution and about 50% dissolution, respectively.
# [3] = Comparative dissolution with cyclodextrin formulation (FIG. 4); format: physicochemical; conditions: 45 minutes
# Description: Compositions according to the invention using cyclodextrins have also shown similarly beneficial results. The improved solubility of the inventive compositions comprising an antifolate compound and a cyclodextrin is illustrated in FIG. 4, wherein the comparative dissolution of an antifolate compound is again given as a percent dissolution as a function of time. The antifolate compound was again tested in the diacid form (denoted as “Free acid”), in the sodium salt form (denoted as “Disodium salt”), and as the sodium salt form in a pharmaceutical composition according to the invention including a cyclodextrin (denoted as “Cyclodextrin formulation”). […] The inventive formulation approached 100% dissolution within 30 minutes. After 45 minutes, the salt alone and the diacid alone achieved only about 70% dissolution and about 45% dissolution, respectively.
# [4] = Pharmacokinetics of a single oral dose in a healthy subject; conditions: human, in vivo
# Description: The pharmacokinetic parameters of a single oral dose of the antifolate compound according to the invention were evaluated. In Comparative Examples 2-7, 1 to 20 mg of an antifolate compound according to Formula (9) was administered in the racemic free acid form (i.e., not as part of a pharmaceutical formulation). The drug product was supplied as powder-filled gelatin capsules in three active strengths (1.0 mg, 2.5 mg. and 5.0 mg) with each capsule including enough microcrystalline cellulose to bring the total capsule weight to 288 mg. […] In Examples 2-8, the test material was administered to a healthy subject, and blood samples were taken before dosing and at 0.5, 1, 1.5, 2, 2.5, 3, 3.5, 4, 5, 6, 8, 10, 12, 16, 24, and 48 hours after dosing. The calculated pharmacokinetic values observed are provided below in Table 3.
# In Table 3, Cmax is the maximum measured plasma concentration of the antifolate compound administered and tmax is the time to Cmax. […] Thus, the pharmaceutical formulations of the present invention allow for greatly reducing the amount of antifolate compound that is administered to a subject while actually increasing the amount of the compound that is available for therapeutic action.
# [5] = Description: A salt screen of this compound was conducted with various pharmaceutically acceptable counterions to analyze aqueous solubility of the formed salts. Formed solids suspected of forming salts were analyzed by X-ray powder diffraction (XRPD).
# [6] = Plasma concentration after oral L- or D-CH-1504 in non-fasted rats (Example 14); format: in vivo; conditions: individual animals; for Plasma conc. of D-CH-1504 / Plasma conc. of L-CH-1504: non-fasted female Lewis rats
# Description: L- or D-CH-1504 was administered once orally to non-fasted female Lewis rats at a dose of 10 mg/kg (vehicle: 0.11% carboxymethylcellulose/0.45% TWEEN 80, formulation: suspension). About 750 μL of blood was collected from the jugular vein at 1 and 3 hours after administration. And then, whole of blood was collected from the femoral vein under diethyl ether anesthesia at 6 hours after administration. The collected blood was immediately centrifuged to obtain a plasma sample. L- and D-CH-1504 were extracted from the plasma by solid-phase extraction and were then determined with a LC/MS/MS.
# [7] = tested on: CCRF-CEM cells; test: Growth inhibition of CCRF-CEM cells by continuous (120 hr) drug exposure; format: cell-based, human; conditions: continuous 120 hr exposure
# Description: The human T-lymphoblastic leukemia cell line CCRF-CEM (described in Foley G F, et al., Cancer 1965; 18:522-9) was cultured as described in McCloskey D E, et al., J Biol Chem 1991; 266:6181-7 (both of which are incorporated herein by reference in their entirety) and verified to be negative for Mycoplasma contamination (Mycoplasma Plus PCR primers, Stratagene, La Jolla, Calif.).
# [8] = Hygroscopicity study of salts at 75% relative humidity for five days; format: physicochemical
# Description: Hygroscopicity and approximate solubility in aqueous and buffered solutions of ammonium, besylate, calcium, esylate, sulfate, HCl, mesylate, napsylate, potassium, disodium, and tosylate salts were compared. In the hygroscopicity study, the salts were subjected to 75% relative humidity for five days.
smiles,measurement,setting,value
"C=C(CC(NC(=O)c1ccc(CCc2ccc3nc(N)nc(N)c3c2)cc1)C(=O)O)C(=O)O (racemic) [CH-1504, 2-{4-[2-(2,4-diamino-quinazolin-6-yl)-ethyl]-benzoylamino}-4-methylene-pentanedioic acid]",IC50,[1],1700 nM
same,percent dissolution,"[2]; FIG. 2, 45 minutes",45%
same,percent dissolution,"[2]; FIG. 3, 15 minutes",approximately 35%
same,percent dissolution,"[2]; FIG. 3, 90 minutes",about 50%
same,percent dissolution,[3],about 45%
same,AUC(0-inf),[4]; 1 mg,1.52 ng·h/mL
same,AUC(0-t),[4]; 1 mg,1.25 ng·h/mL
same,Cmax,[4]; 1 mg,0.69 ng/mL
same,Tmax,[4]; 1 mg,2.26 h
same,half-life,[4]; 1 mg,0.99 h
same,AUC(0-inf),[4]; 5 mg,9.58 ng·h/mL
same,AUC(0-t),[4]; 5 mg,8.92 ng·h/mL
same,Cmax,[4]; 5 mg,2.65 ng/mL
same,Tmax,[4]; 5 mg,1.26 h
same,half-life,[4]; 5 mg,3.21 h
same,AUC(0-inf),[4]; 7.5 mg,7.47 ng·h/mL
same,AUC(0-t),[4]; 7.5 mg,6.63 ng·h/mL
same,Cmax,[4]; 7.5 mg,2.05 ng/mL
same,Tmax,[4]; 7.5 mg,1.5 h
same,half-life,[4]; 7.5 mg,2.71 h
same,AUC(0-inf),[4]; 10 mg,26 ng·h/mL
same,AUC(0-t),[4]; 10 mg,25.2 ng·h/mL
same,Cmax,[4]; 10 mg,6 ng/mL
same,Tmax,[4]; 10 mg,2.01 h
same,half-life,[4]; 10 mg,3.13 h
same,AUC(0-inf),[4]; 15 mg,25.9 ng·h/mL
same,AUC(0-t),[4]; 15 mg,25 ng·h/mL
same,Cmax,[4]; 15 mg,6.57 ng/mL
same,Tmax,[4]; 15 mg,2.25 h
same,half-life,[4]; 15 mg,3.2 h
same,AUC(0-inf),[4]; 20 mg,35.6 ng·h/mL
same,AUC(0-t),[4]; 20 mg,34.6 ng·h/mL
same,Cmax,[4]; 20 mg,7.83 ng/mL
same,Tmax,[4]; 20 mg,2.25 h
same,half-life,[4]; 20 mg,3.91 h
same,solubility (in words),[5],poor solubility
"Nc1nc(N)c2nc(CNc3ccc(C(=O)N[C@@H](CCC(=O)O)C(=O)O)cc3)cnc2n1 [Aminopterin, reference compound]",IC50,[1],1500 nM
C=C(C[C@@H](NC(=O)c1ccc(CCc2ccc3nc(N)nc(N)c3c2)cc1)C(=O)O)C(=O)O [D-CH-1504],Plasma conc. of D-CH-1504,[6]; 1 h after 10 mg/kg oral,31.5 ng/mL and 20.5 ng/mL and 11.0 ng/mL
same,Plasma conc. of L-CH-1504,[6]; 1 h after 10 mg/kg oral,0.895 ng/mL and BLQ (Below limit of quantification (<0.500 ng/mL)) (2×)
same,Plasma conc. of D-CH-1504,[6]; 3 h after 10 mg/kg oral,14.3 ng/mL and 9.44 ng/mL and 8.93 ng/mL
same,Plasma conc. of L-CH-1504,[6]; 3 h after 10 mg/kg oral,BLQ (Below limit of quantification (<0.500 ng/mL))
same,Plasma conc. of D-CH-1504,[6]; 6 h after 10 mg/kg oral,8.34 ng/mL and 13.6 ng/mL and 8.01 ng/mL
same,Plasma conc. of L-CH-1504,[6]; 6 h after 10 mg/kg oral,BLQ (Below limit of quantification (<0.500 ng/mL))
same,IC50,[1],7600 nM
same,EC50,[7],29 nM
"C=C(C[C@H](NC(=O)c1ccc(CCc2ccc3nc(N)nc(N)c3c2)cc1)C(=O)O)C(=O)O [L-CH-1504, (S)-2-{4-[2-(2,4-diamino-quinazolin-6-yl)-ethyl]-benzoylamino}-4-methylene-pentanedioic acid]",Plasma conc. of D-CH-1504,[6]; 1 h after 10 mg/kg oral,BLQ (Below limit of quantification (<0.500 ng/mL))
same,Plasma conc. of L-CH-1504,[6]; 1 h after 10 mg/kg oral,139 ng/mL and 118 ng/mL
same,Plasma conc. of D-CH-1504,[6]; 3 h after 10 mg/kg oral,BLQ (Below limit of quantification (<0.500 ng/mL))
same,Plasma conc. of L-CH-1504,[6]; 3 h after 10 mg/kg oral,36.8 ng/mL and 59.7 ng/mL
same,Plasma conc. of D-CH-1504,[6]; 6 h after 10 mg/kg oral,BLQ (Below limit of quantification (<0.500 ng/mL))
same,Plasma conc. of L-CH-1504,[6]; 6 h after 10 mg/kg oral,22.2 ng/mL and 21.7 ng/mL
same,concentration at 1 h,"[6]; female, Lewis, rat, plasma, oral, 10 mg/kg, 1 h after 10 mg/kg oral, read-out: Plasma conc. of L-CH-1504",144 ng/mL
same,concentration at 3 h,"[6]; female, Lewis, rat, plasma, oral, 10 mg/kg, 3 h after 10 mg/kg oral, read-out: Plasma conc. of L-CH-1504",61.9 ng/mL
same,concentration at 6 h,"[6]; female, Lewis, rat, plasma, oral, 10 mg/kg, 6 h after 10 mg/kg oral, read-out: Plasma conc. of L-CH-1504",22.7 ng/mL
same,IC50,[1],1100 nM
Cc1ccc(S(=O)(=O)O)cc1.Cn1cc(-c2ccc3nnc(C(F)(F)c4ccc5ncccc5c4)n3n2)cn1 [tosylate salt],hygroscopicity study outcome,[8],Tacky or gummy solids or solids not exhibiting birefringence and extinction
